pEC50: −log10 of the molar value. Where two headings read alike, the source gives them in different places.
Key:
Type in all cases: cell-based
CFTR ΔF508 = biological target: T1, CFTR ΔF508 (Homo sapiens, UniProt P13569, DEL508-508); assay: Chronic TECC assay, primary bronchial epithelial cells of CF patients homozygous for CFTR ΔF508 (corrector, co-corrector and potentiator); settings: for % Activity at 1 μM (AUC**) / EC50 / % Activity at 3 μM (AUC**): chronic TECC; for % Activity at 1 μM (AUC**): test compound at 1 μM; for % Activity at 3 μM (AUC**): test compound at 3 μM
T1 construct: bronchial epithelial cells isolated from CF patients homozygous for the CFTR ΔF508 mutation; McGill University; Asterand; University of North Carolina hAEC-CF; host or cells: primary human bronchial epithelial cells from CF patients homozygous for ΔF508, differentiated at air-liquid interface
In short: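 Primary bronchial epithelial cells from ΔF508-homozygous CF patients on collagen IV-coated Transwells were chronically treated with test compound plus corrector and potentiator, which were re-added before recording. Ieq was derived from PD and Rt in NaCl-Ringer, pH 7.4, at 37° C, with apical amiloride and bilateral forskolin, recorded every 2 min over 20 min. Ieq increase was normalized to controls, and EC50 was taken from per-well concentrations.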

ΔF508-CFTR [1] = biological target: T2, ΔF508-CFTR (Homo sapiens, UniProt P13569, DEL508-508); assay: CFTR cell surface levels using HRP-tagged ΔF508-CFTR expressing CFBE cells, intrinsic corrector capacity; design: % Activation: concentration or dose not given beside the values
T2 construct: host or cells: CFBE41o-, doxycycline-inducible
In short: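 Read-out: chemiluminescent HRP activity of ECL4-HRP-tagged ΔF508-CFTR at the cell surface, 15 min substrate in dark. Normalized as 100×(sample−DMSO)/(positive control−DMSO).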

ΔF508-CFTR [2] = biological target: T2, ΔF508-CFTR; assay: CFTR cell surface levels using HRP-tagged ΔF508-CFTR expressing CFBE cells, in the presence of a co-corrector
In short: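 Chemiluminescent read-out of surface HRP (15 min, dark) after PBS washes. Activity is normalized as 100×(sample−DMSO)/(3 μM co-corrector alone−DMSO).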

[3] = HRP-tagged ΔF508-CFTR expressing CFBE41o- cells, compound alone (intrinsic corrector capacity), 20 hours at 33° C.
[4] = HRP-tagged ΔF508-CFTR CFBE cells, in the presence of 3 μM co-corrector
[5] = AUC = full area under the curve upon forskolin stimulation
[6] = HRP-tagged ΔF508-CFTR expressing CFBE41o- cells, compound alone (intrinsic corrector capacity), 20 hours at 33° C., read-out: EC50
[7] = HRP-tagged ΔF508-CFTR CFBE cells, in the presence of 3 μM co-corrector, read-out: EC50
[8] = AUC = full area under the curve upon forskolin stimulation, read-out: EC50 (nM) (AUC**)

T1 sequence (P13569 with tags, fused parts or gaps DEL508-508): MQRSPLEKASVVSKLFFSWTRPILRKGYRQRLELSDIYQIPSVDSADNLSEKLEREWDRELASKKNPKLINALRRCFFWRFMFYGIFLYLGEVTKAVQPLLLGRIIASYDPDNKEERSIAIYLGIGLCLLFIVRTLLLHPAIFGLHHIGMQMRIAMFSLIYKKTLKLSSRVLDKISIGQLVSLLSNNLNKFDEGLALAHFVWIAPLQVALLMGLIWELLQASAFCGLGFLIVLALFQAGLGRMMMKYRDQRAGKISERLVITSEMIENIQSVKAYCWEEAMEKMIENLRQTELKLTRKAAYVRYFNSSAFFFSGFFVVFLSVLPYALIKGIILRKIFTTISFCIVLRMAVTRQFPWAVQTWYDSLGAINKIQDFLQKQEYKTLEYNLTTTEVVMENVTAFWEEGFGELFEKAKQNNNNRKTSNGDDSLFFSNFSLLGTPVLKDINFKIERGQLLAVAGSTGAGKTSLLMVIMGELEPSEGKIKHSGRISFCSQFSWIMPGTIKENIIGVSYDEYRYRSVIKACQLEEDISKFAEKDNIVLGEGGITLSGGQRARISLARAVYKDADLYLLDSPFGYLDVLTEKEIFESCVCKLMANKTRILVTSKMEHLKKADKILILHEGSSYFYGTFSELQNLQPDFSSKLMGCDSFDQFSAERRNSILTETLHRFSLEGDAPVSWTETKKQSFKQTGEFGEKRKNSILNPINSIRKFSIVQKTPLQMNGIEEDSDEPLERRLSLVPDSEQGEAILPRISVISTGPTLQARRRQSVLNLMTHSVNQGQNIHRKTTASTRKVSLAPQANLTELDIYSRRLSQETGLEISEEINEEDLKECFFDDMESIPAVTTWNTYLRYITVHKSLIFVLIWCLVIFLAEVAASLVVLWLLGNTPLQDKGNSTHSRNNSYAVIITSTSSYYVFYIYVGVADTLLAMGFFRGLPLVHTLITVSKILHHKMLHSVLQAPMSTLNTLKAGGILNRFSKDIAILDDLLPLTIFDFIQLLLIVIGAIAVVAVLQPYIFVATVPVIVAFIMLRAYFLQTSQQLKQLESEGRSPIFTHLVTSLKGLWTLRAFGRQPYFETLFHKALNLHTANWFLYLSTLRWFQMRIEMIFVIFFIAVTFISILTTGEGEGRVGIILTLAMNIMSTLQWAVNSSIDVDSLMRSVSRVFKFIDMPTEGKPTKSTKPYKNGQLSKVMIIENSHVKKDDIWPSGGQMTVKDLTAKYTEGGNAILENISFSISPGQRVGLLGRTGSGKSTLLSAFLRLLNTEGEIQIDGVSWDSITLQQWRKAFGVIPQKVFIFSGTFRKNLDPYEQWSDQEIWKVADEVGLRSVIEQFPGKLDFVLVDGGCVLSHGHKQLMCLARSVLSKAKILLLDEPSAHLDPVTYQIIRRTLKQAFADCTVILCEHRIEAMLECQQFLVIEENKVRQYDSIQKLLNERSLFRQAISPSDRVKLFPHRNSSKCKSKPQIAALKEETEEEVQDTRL
T2 sequence (P13569 with tags, fused parts or gaps DEL508-508): as above

| SMILES | pEC50 (CFTR ΔF508) | pEC50 (ΔF508-CFTR [1]) | % Activation (ΔF508-CFTR [1]; [3]) [%] | pEC50 (ΔF508-CFTR [2]) | % Activation (ΔF508-CFTR [2]; [4]) [%] | % Activity at 1 μM (AUC**) (CFTR ΔF508; [5]) [%] | pEC50 (ΔF508-CFTR [1]; [6]) | pEC50 (ΔF508-CFTR [2]; [7]) | EC50 (CFTR ΔF508; [8]) [nM] | % Activity at 3 μM (AUC**) (CFTR ΔF508; [5]) [%] | EC50 (CFTR ΔF508; Ieq = calculations based on the maximum current, read-out: EC50 (nM) (Ieq*)) |
| --- | --- | --- | --- | --- | --- | --- | --- | --- | --- | --- | --- |
| CS(=O)(=O)NC(=O)c1cc(N2CCC(CCN3CCOCC3)CC2)c2c(C3CCC3)nn(-c3ccccc3)c2n1 [Compound 331, 3-cyclobutyl-N-(methanesulfonyl)-4-{4-[2-(morpholin-4-yl)ethyl]piperidin-1-yl}-1-phenyl-1H-pyrazolo[3,4-b]pyridine-6-carboxamide] | 8.00 | 6.87 | 347.15 | 7.42 | 546.05 | – | – | – | – | – | – |
| CCOC(=O)N1CCN(c2cc(C(=O)NS(C)(=O)=O)nc3c2c(C(C)C)nn3-c2ccc(F)cc2)CC1 [Compound 337, ethyl 4-[1-(4-fluorophenyl)-6-[(methanesulfonyl)carbamoyl]-3-(propan-2-yl)-1H-pyrazolo[3,4-b]pyridin-4-yl]piperazine-1-carboxylate] | – | – | 404.9 | – | 532.3 | 299.50 | 6.87 | 7.51 | – | – | – |
| COCCN1CCN(c2cc(C(=O)NS(C)(=O)=O)nc3c2c(C(C)C)nn3-c2ccc(F)cc2)CC1 [Compound 340, 1-(4-fluorophenyl)-N-(methanesulfonyl)-4-[4-(2-methoxyethyl)piperazin-1-yl]-3-(propan-2-yl)-1H-pyrazolo[3,4-b]pyridine-6-carboxamide] | – | – | 138.95 | – | 319.2 | 216.53 | 5.86 | 6.10 | – | – | – |
| CC(C)c1nn(-c2ccc(F)cc2)c2nc(C(=O)NS(C)(=O)=O)cc(N3CCC(N4CCCCC4)CC3)c12 [Compound 348, 4-([1,4'-bipiperidin]-1'-yl)-1-(4-fluorophenyl)-N-(methanesulfonyl)-3-(propan-2-yl)-1H-pyrazolo[3,4-b]pyridine-6-carboxamide] | – | – | 293.6 | – | 468.65 | 343.24 | 5.22 | 6.14 | 200 | – | – |
| CS(=O)(=O)NC(=O)c1cc(N2CCC(N3CCCCC3)CC2)c2c(C3CCC3)nn(-c3ccccc3)c2n1 [Compound 365, 4-([1,4′-bipiperidin]-1′-yl)-3-cyclobutyl-N-(methanesulfonyl)-1-phenyl-1H-pyrazolo[3,4-b]pyridine-6-carboxamide] | 6.70 | 5.78 | 313 | 6.57 | 469.95 | – | – | – | – | – | – |
| COCC1CCN(c2cc(C(=O)NS(=O)(=O)C3CCOC3)nc3c2c(C2CCC2)nn3-c2ccccc2)CC1 (centres unmarked) [Compound 369, 3-cyclobutyl-4-[4-(methoxymethyl)piperidin-1-yl]-N-(oxolane-3-sulfonyl)-1-phenyl-1H-pyrazolo[3,4-b]pyridine-6-carboxamide] | – | – | 292.7 | – | 444 | 583.16 | 7.00 | 6.98 | 8.3 | – | – |
| COCC1CCN(c2cc(C(=O)NS(C)(=O)=O)nc3c2c(C(C)C)nn3-c2cc(C)nc(C)c2)CC1 [Compound 370, 1-(2,6-dimethylpyridin-4-yl)-N-(methanesulfonyl)-4-[4-(methoxymethyl)piperidin-1-yl]-3-(propan-2-yl)-1H-pyrazolo[3,4-b]pyridine-6-carboxamide] | – | – | 172.2 | – | 343.2 | – | 5.83 | 6.16 | – | 226.54 | – |
| COCC1CN(C2CCN(c3cc(C(=O)NS(=O)(=O)N(C)C)nc4c3c(C3CCC3)nn4-c3ccc(F)cc3)CC2)CCO1 (centres unmarked) [Compound 379, 3-cyclobutyl-N-(dimethylsulfamoyl)-1-(4-fluorophenyl)-4-{4-[2-(methoxymethyl)morpholin-4-yl]piperidin-1-yl}-1H-pyrazolo[3,4-b]pyridine-6-carboxamide] | – | – | 268.45 | – | 440.55 | – | 6.85 | 7.21 | 43 | – | – |
| CC(C)N1CCN(C2CCN(c3cc(C(=O)NS(=O)(=O)N(C)C)nc4c3c(C3CCC3)nn4-c3ccc(F)cc3)CC2)CC1 [Compound 382, 3-cyclobutyl-N-(dimethylsulfamoyl)-1-(4-fluorophenyl)-4-{4-[4-(propan-2-yl)piperazin-1-yl]piperidin-1-yl}-1H-pyrazolo[3,4-b]pyridine-6-carboxamide] | – | – | 305.9 | – | 500.01 | – | 6.58 | 6.80 | – | 347 | 205 |
| COCC1CCN(c2cc(C(=O)NS(C)(=O)=O)nc3c2c(C2CCC2)nn3-c2ccnc(OC)c2)CC1 [Compound 385, 3-cyclobutyl-N-(methanesulfonyl)-4-[4-(methoxymethyl)piperidin-1-yl]-1-(2-methoxypyridin-4-yl)-1H-pyrazolo[3,4-b]pyridine-6-carboxamide] | – | – | 227.5 | – | 393.53 | – | 6.92 | 7.19 | 12.3 | – | – |
| COCC1CCN(c2cc(C(=O)NS(=O)(=O)N3CCOCC3)nc3c2c(C2CCC2)nn3-c2ccccc2)CC1 [Compound 396, 3-cyclobutyl-4-[4-(methoxymethyl)piperidin-1-yl]-N-(morpholine-4-sulfonyl)-1-phenyl-1H-pyrazolo[3,4-b]pyridine-6-carboxamide] | – | – | 222.9 | – | 385.8 | – | 6.92 | 7.26 | – | 259.4666 | – |
| COCC1CCN(c2cc(C(=O)NS(=O)(=O)N3CCC(N4CCOCC4)CC3)nc3c2c(C2CCC2)nn3-c2ccccc2)CC1 [Compound 397, 3-cyclobutyl-4-[4-(methoxymethyl)piperidin-1-yl]-N-[4-(morpholin-4-yl)piperidine-1-sulfonyl]-1-phenyl-1H-pyrazolo[3,4-b]pyridine-6-carboxamide] | – | – | 234.5 | – | 381.8 | – | 6.81 | 7.31 | – | 251.7766 | – |
| COCC1CCN(c2cc(C(=O)NS(=O)(=O)N3CCC(F)CC3)nc3c2c(C2CCC2)nn3-c2ccccc2)CC1 [Compound 399, 3-cyclobutyl-N-(4-fluoropiperidine-1-sulfonyl)-4-[4-(methoxymethyl)piperidin-1-yl]-1-phenyl-1H-pyrazolo[3,4-b]pyridine-6-carboxamide] | – | – | 237.5 | – | 388.77 | 244.7508 | 7.14 | 7.36 | – | – | – |
| COCC1CCN(c2cc(C(=O)NS(=O)(=O)N3CCN(C)CC3)nc3c2c(C2CCC2)nn3-c2ccccc2)CC1 [Compound 400, 3-cyclobutyl-4-[4-(methoxymethyl)piperidin-1-yl]-N-(4-methylpiperazine-1-sulfonyl)-1-phenyl-1H-pyrazolo[3,4-b]pyridine-6-carboxamide] | – | – | 180.65 | – | 365.43 | 230 | 6.79 | 6.80 | – | – | – |
| COCC1CCN(c2cc(C(=O)NS(=O)(=O)N(C)C)nc3c2c(C2CCC2)nn3-c2ccccc2)CC1 [Compound 402, 3-cyclobutyl-N-(dimethylsulfamoyl)-4-[4-(methoxymethyl)piperidin-1-yl]-1-phenyl-1H-pyrazolo[3,4-b]pyridine-6-carboxamide] | – | – | 303.5 | – | 471.42 | 345.045 | 6.51 | 6.93 | 12.1 | – | – |
| CC(C)Oc1nn(C2CCCCC2)c2nc(C(=O)NS(C)(=O)=O)cc(-c3ccc(CN4CCOCC4)cc3)c12 [Compound 404, 1-cyclohexyl-N-(methanesulfonyl)-4-{4-[(morpholin-4-yl)methyl]phenyl}-3-[(propan-2-yl)oxy]-1H-pyrazolo[3,4-b]pyridine-6-carboxamide] | – | – | 181.2 | – | 370 | 433.3333 | 6.73 | 6.90 | – | – | – |
| COCCS(=O)(=O)NC(=O)c1cc(-c2ccc(CN3CCOCC3)cc2)c2c(OC(C)C)nn(C3CCCCC3)c2n1 [Compound 405, 1-cyclohexyl-N-(2-methoxyethanesulfonyl)-4-{4-[(morpholin-4-yl)methyl]phenyl}-3-[(propan-2-yl)oxy]-1H-pyrazolo[3,4-b]pyridine-6-carboxamide] | – | – | 160.8 | – | 326.9 | 323.3333 | 6.72 | 6.99 | – | – | – |

— patent publication US10259810B2, “N-sulfonylated pyrazolo[3,4-b]pyridin-6-carboxamides and method of use” (AbbVie S.à.r.l., priority 2015, dated 2019)
